{"source": "patent US11426422B2", "about": "“SHP2 inhibitors and methods of use thereof” (Research Development Foundation, priority 2018, dated 2022)", "key": {"HFD-fed mice": {"system": "HFD-fed mice", "assay": "glucose tolerance test in HFD-fed mice", "assay_type": "in vivo", "conditions": "60 mg/kg daily oral gavage for 6 days; male mice fed HFD 5 weeks; 14 h fasted", "experimental": "(§1) (FIG. 3A) Glucose tolerance test in 14 h fasted male mice fed a HFD for 5 weeks. […] At 1 day after drug treatment, glucose tolerance test was performed. Mean±SEM. (FIG. 3B) Insulin tolerance test of mice treated as described in FIG. 3A. Mean±SEM. […] The liver sections were stained with anti-IR (red) and DAPI (blue). Scale bars, 5 μm. (FIG. 3D) Quantification of the ratios of PM and IC IR signals of the livers in C (mean±SD; *p<0.0001). […] Cell lysates were blotted with the indicated antibodies.\n(§2) The IR staining at the PM in liver sections from mice fed with HFD was weak, and insulin stimulation further reduced it and caused IR endocytosis (FIGS. 3C and D).\nAll animals were maintained in a specific antigen-free barrier facility with 12 h light/dark cycles (6 AM on and 6 PM off). Mice were fed a standard rodent chow (2016 Teklad Global 16% protein rodent diet, Harlan Laboratories). […] For glucose tolerance test, mice were fasted for 14 h, and their blood glucose levels (T=0) were measured with tail bleeding using a glucometer (AlphaTRAK®). […] Blood glucose levels were measured at 15, 30, 60, and 120 min after glucose injection. For insulin tolerance test, mice fasted for 4 h were injected intraperitoneally with recombinant human insulin (Eli Lilly) at 1 U/kg body weight, and their blood glucose levels were measured at 0, 15, 30 and 60 min after injection."}, "IR in liver sections": {"system": "IR in liver sections", "assay": "IR staining at the PM in liver sections of HFD-fed mice", "assay_type": "in vivo", "conditions": "60 mg/kg oral for 6 days", "experimental": "as §1, §2\nThe fixation, histological analysis, and immunohistochemistry of mouse tissues were performed as described previously (Choi et al., 2016). For human patient sample analysis, the deparaffinized sections were subjected to antigen retrieval with 10 mM sodium citrate (pH 6.0), incubated with 0.3% H2O2, blocked with 0.3% BSA, and then incubated first with anti-IR (CT3, Millipore®, 1:100) and anti-ZO1 (Thermo Scientific®, 1:200) antibodies and then with secondary antibodies (AlexaFluor® 568 goat anti-mouse and AlexaFluor® 488 goat anti-rabbit; Molecular Probes®). […] The total cell numbers and numbers of IR PM-positive cells were counted at least twice for individual images. Over 100 cells were analyzed for each patient samples. […]"}, "primary hepatocytes": {"system": "primary hepatocytes", "assay": "insulin signaling in primary hepatocytes (quantitative Western blot)", "assay_type": "cell-based, mice", "conditions": "10 μM for 2 h, then 100 nM insulin", "experimental": "as §1\nTo examine the effect of SHP2 inhibition on insulin signaling in freshly isolated primary hepatocytes, the activating phosphorylation of IR (pY1189/1190), AKT (pT308), and ERK1/2 (pT202/Y204, pERK1/2) in the hepatocytes was monitored (FIG. 3E and FIG. 8B).\nPrimary hepatocytes were isolated from 2-month-old female mice with a standard two-step collagenase perfusion procedure. Cells were plated on collagen-coated dishes and incubated in attachment medium (Williams' E Medium supplemented with 5% (v/v) FBS, 10 nM insulin, 10 nM dexamethasone, and 1% (v/v) penicillin/streptomycin). After 2-4 h, the medium was changed to low-glucose DMEM supplemented with 5% (v/v) FBS, 10 nM dexamethasone, 10 nM insulin, 100 nM triiodothyronine, and 1% (v/v) penicillin/streptomycin.\nCells were incubated with the cell lysis buffer [50 mM HEPES (pH 7.4), 150 mM NaCl, 10% (v/v) Glycerol, 1% (v/v) Triton X-100, 1 mM EDTA, 100 mM sodium fluoride, 2 mM sodium orthovanadate, 20 mM sodium pyrophosphate, 0.5 mM dithiothreitol (DTT), 2 mM phenylmethylsulfonyl fluoride (PMSF)] supplemented with protease inhibitors (Roche®) and PhosSTOP™ (Roche®) on ice for 1 h. The cell lysates were cleared by centrifugation and incubated with antibody-conjugated beads. The beads were washed, and the bound proteins were eluted with the SDS sample buffer and analyzed by SDS-PAGE and Western blotting. For quantitative Western blots, anti-rabbit immunoglobulin G (IgG) (H+L) (Dylight 800 or 680 conjugates) and anti-mouse IgG (H+L) (Dylight 800 or 680 conjugates) (Cell Signaling) were used as secondary antibodies. […]"}}, "data": [{"compound": "CC1(N)CCN(c2cnc(-c3cccc(Cl)c3Cl)c(N)n2)CC1", "note": "[SHP099]", "values": [{"measurement": "glucose tolerance", "setting": "HFD-fed mice", "value": "markedly increased glucose tolerance"}, {"measurement": "insulin-activated IR endocytosis in liver", "setting": "IR in liver sections; 5 U insulin via inferior vena cava", "value": "blocked insulin-activated IR endocytosis"}, {"measurement": "IR signal at the PM in liver", "setting": "IR in liver sections; in the absence of insulin", "value": "elevated the IR signal at the PM"}, {"measurement": "activation of the MAPK pathway by insulin (pERK1/2)", "setting": "primary hepatocytes", "value": "inhibited the activation of the MAPK pathway by insulin"}, {"measurement": "insulin-triggered activating phosphorylation of AKT (pT308)", "setting": "primary hepatocytes", "value": "significantly increased and prolonged"}, {"measurement": "insulin-triggered activating phosphorylation of IR (pY1189/1190)", "setting": "primary hepatocytes", "value": "significantly increased and prolonged"}]}]}
